Measured values from patent publication US5747466A, “3-deoxy-3-descladinose derivatives of erythromycins A and B” (Abbott Laboratories, priority 1996, dated 1998).
Read-outs that look alike come from different tables or passages of the source.

Experiments:
Experiment in all cases: In vitro antibacterial activity (MIC), agar dilution
[1] = tested on: STREPTOCOCCUS PYOGENES PIU 2548; assay type: cell-based; settings: S. pyogenes PIU 2548; BHI agar, 35-37 °C, 20-24 h
[2] = tested on: ESCHERICHIA COLI SS; assay type: cell-based; settings: E. coli SS; BHI agar, 35-37 °C, 20-24 h
[3] = tested on: M[…] ATCC 9341; assay type: cell-based, Micrococcus luteus; settings: M. luteus ATCC 9341; BHI agar, 35-37 °C, 20-24 h
Experimental: (§1) Representative compounds of the present invention were assayed in vitro for antibacterial activity as follows: Twelve petri dishes containing successive aqueous dilutions of the test compound mixed with 10 mL of sterilized Brain Heart Infusion (BHI) agar (Difco 0418-01-5) were prepared. Each plate was inoculated with 1:100 (or 1:10 for slow-growing strains, such as Micrococcus and Streptococcus) dilutions of up to 32 different microorganisms, using a Steers replicator block. The inoculated plates were incubated at 35°-37° C. for 20 to 24 hours. In addition, a control plate, using BHI agar containing no test compound, was prepared and incubated at the beginning and end of each test.
(§2) An additional plate containing a compound having known susceptibility patterns for the organisms being tested and belonging to the same antibiotic class as the test compound was also prepared and incubated as a further control, as well as to provide test-to-test comparability. Erythromycin A was used for this purpose.
(§3) After incubation, each plate was examined. The minimum inhibitory concentration (MIC) was defined as the lowest concentration of drug yielding no growth, a slight haze, or sparsely isolated colonies on the inoculum spot as compared to the growth control.

[4] = tested on: M[…] ATCC 4698; assay type: cell-based, Micrococcus luteus; settings: M. luteus ATCC 4698; BHI agar, 35-37 °C, 20-24 h
Experimental: as §1, §2, §3

[5] = tested on: CANDIDA ALBICANS CCH 442; assay type: cell-based; settings: C. albicans CCH 442; BHI agar, 35-37 °C, 20-24 h
[6] = tested on: PSEUDOMONAS AERUGINOSA DPHD-2862; assay type: cell-based; settings: P. aeruginosa DPHD-2862; BHI agar, 35-37 °C, 20-24 h
[7] = tested on: PSEUDOMONAS AERUGINOSA BMH10; assay type: cell-based; settings: P. aeruginosa BMH10; BHI agar, 35-37 °C, 20-24 h
[8] = tested on: STAPHYLOCOCCUS AUREUS 1775; assay type: cell-based; settings: S. aureus 1775; BHI agar, 35-37 °C, 20-24 h
[9] = tested on: PROVIDENCIA STUARTII CMX 640; assay type: cell-based
[10] = tested on: ACINETOBACTER CALCOACETICUS CMX 669; assay type: cell-based; settings: A. calcoaceticus CMX 669; BHI agar, 35-37 °C, 20-24 h
[11] = P. stuartii CMX 640, BHI agar, 35-37 °C, 20-24 h

SMILES: CC[C@H]1OC(=O)[C@H](C)[C@@H](O[C@H]2C[C@@](C)(OC)[C@@H](O)[C@H](C)O2)[C@H](C)[C@@H](O[C@@H]2O[C@H](C)C[C@H](N(C)C)[C@H]2O)[C@](C)(O)C[C@@H](C)C(=O)[C@H](C)[C@@H](O)[C@]1(C)O [Ery A, Erythromycin A, reference compound]
- minimum inhibitory concentration (MIC) [1]: 6.2
- minimum inhibitory concentration (MIC) [2]: 0.2
- minimum inhibitory concentration (MIC) [3]: 0.02
- minimum inhibitory concentration (MIC) [4]: 0.2
- minimum inhibitory concentration (MIC) [5]: > 100
- minimum inhibitory concentration (MIC) [6]: 100
- minimum inhibitory concentration (MIC) [7]: 100
- minimum inhibitory concentration (MIC) [8]: > 100
- minimum inhibitory concentration (MIC) [9]: > 100

SMILES: CC[C@H]1OC(=O)[C@H](C)C[C@H](C)[C@@H](O[C@@H]2O[C@H](C)C[C@H](N(C)C)[C@H]2O)[C@](C)(OC)C[C@@H](C)C(=O)[C@H](C)[C@@H](O)[C@]1(C)O [Ex. 1]
- minimum inhibitory concentration (MIC) [1]: 3.1
- minimum inhibitory concentration (MIC) [2]: 0.78
- minimum inhibitory concentration (MIC) [3]: 3.1
- minimum inhibitory concentration (MIC) [4]: 6.2
- minimum inhibitory concentration (MIC) [5]: > 100
- minimum inhibitory concentration (MIC) [10]: > 100
- minimum inhibitory concentration (MIC) [6]: > 100
- minimum inhibitory concentration (MIC) [7]: > 100
- minimum inhibitory concentration (MIC) [8]: > 100
- minimum inhibitory concentration (MIC) [9, 11]: > 100

SMILES: CC[C@H]1OC(=O)[C@H](C)C[C@H](C)[C@@H](O[C@@H]2O[C@H](C)C[C@H](N(C)C)[C@H]2O)[C@](C)(OC)C[C@@H](C)C(=NO)[C@H](C)[C@@H](O)[C@]1(C)O [Ex. 2]
- minimum inhibitory concentration (MIC) [1]: 0.56
- minimum inhibitory concentration (MIC) [2]: 0.78
- minimum inhibitory concentration (MIC) [3]: 1.56
- minimum inhibitory concentration (MIC) [4]: 3.1
- minimum inhibitory concentration (MIC) [5]: > 100
- minimum inhibitory concentration (MIC) [10]: > 100
- minimum inhibitory concentration (MIC) [6]: > 100
- minimum inhibitory concentration (MIC) [7]: > 100
- minimum inhibitory concentration (MIC) [8]: > 100
- minimum inhibitory concentration (MIC) [9, 11]: > 100

SMILES: CC[C@H]1OC(=O)[C@H](C)C[C@H](C)[C@@H](O[C@@H]2O[C@H](C)C[C@H](N(C)C)[C@H]2O)[C@](C)(OC)C[C@@H](C)C(=O)[C@H](C)[C@H]2OC(=O)O[C@@]21C [Ex. 3]
- minimum inhibitory concentration (MIC) [1]: 0.78
- minimum inhibitory concentration (MIC) [2]: 0.78
- minimum inhibitory concentration (MIC) [3]: 0.78
- minimum inhibitory concentration (MIC) [4]: 0.78
- minimum inhibitory concentration (MIC) [5]: > 100
- minimum inhibitory concentration (MIC) [10]: > 100
- minimum inhibitory concentration (MIC) [6]: > 100
- minimum inhibitory concentration (MIC) [7]: > 100
- minimum inhibitory concentration (MIC) [8]: > 100
- minimum inhibitory concentration (MIC) [9, 11]: > 100

SMILES: CC[C@H]1OC(=O)[C@H](C)C[C@H](C)[C@@H](O[C@@H]2O[C@H](C)C[C@H](N(C)C)[C@H]2O)[C@](C)(OC)C[C@@H](C)C(=O)[C@H](C)[C@H]2N(CCCCc3ccccc3)C(=O)O[C@]12C [Ex. 4]
- minimum inhibitory concentration (MIC) [1]: 0.2
- minimum inhibitory concentration (MIC) [2]: 1.56
- minimum inhibitory concentration (MIC) [3]: 1.56
- minimum inhibitory concentration (MIC) [4]: 1.56
- minimum inhibitory concentration (MIC) [5]: 100
- minimum inhibitory concentration (MIC) [10]: 100
- minimum inhibitory concentration (MIC) [6]: > 100
- minimum inhibitory concentration (MIC) [7]: > 100
- minimum inhibitory concentration (MIC) [8]: 50
- minimum inhibitory concentration (MIC) [9, 11]: > 100

SMILES: CC[C@H]1OC(=O)[C@H](C)C[C@H](C)[C@@H](O[C@@H]2O[C@H](C)C[C@H](N(C)C)[C@H]2O)[C@](C)(OC)C[C@@H](C)C(=O)[C@H](C)[C@H]2N(CCc3ccc(Oc4ccccc4)cc3)C(=O)O[C@]12C [Ex. 5]
- minimum inhibitory concentration (MIC) [1]: 3.1
- minimum inhibitory concentration (MIC) [3]: 3.1
- minimum inhibitory concentration (MIC) [4]: 1.56
- minimum inhibitory concentration (MIC) [5]: 100
- minimum inhibitory concentration (MIC) [10]: > 100
- minimum inhibitory concentration (MIC) [6]: > 100
- minimum inhibitory concentration (MIC) [7]: > 100
- minimum inhibitory concentration (MIC) [8]: 25
- minimum inhibitory concentration (MIC) [9, 11]: > 100

SMILES: CC[C@H]1OC(=O)[C@H](C)C[C@H](C)[C@@H](O[C@@H]2O[C@H](C)C[C@H](N(C)C)[C@H]2O)[C@](C)(OC)C[C@@H](C)C(=NOC)[C@H](C)[C@@H](O)[C@]1(C)O [Ex. 6]
- minimum inhibitory concentration (MIC) [1]: 0.78
- minimum inhibitory concentration (MIC) [3]: 0.39
- minimum inhibitory concentration (MIC) [4]: 0.39
- minimum inhibitory concentration (MIC) [5]: > 100
- minimum inhibitory concentration (MIC) [10]: > 100
- minimum inhibitory concentration (MIC) [6]: > 100
- minimum inhibitory concentration (MIC) [7]: > 100
- minimum inhibitory concentration (MIC) [8]: > 100
- minimum inhibitory concentration (MIC) [9, 11]: 100

SMILES: CC[C@H]1OC(=O)[C@H](C)C[C@H](C)[C@@H](O[C@@H]2O[C@H](C)C[C@H](N(C)C)[C@H]2O)[C@](C)(OC)C[C@@H](C)C(=NOCOCCOC)[C@H](C)[C@@H](O)[C@]1(C)O [Ex. 8]
- minimum inhibitory concentration (MIC) [1]: 6.2
- minimum inhibitory concentration (MIC) [2]: 0.2
- minimum inhibitory concentration (MIC) [3]: 0.02
- minimum inhibitory concentration (MIC) [4]: 0.2
- minimum inhibitory concentration (MIC) [5]: > 100
- minimum inhibitory concentration (MIC) [10]: 12.5
- minimum inhibitory concentration (MIC) [6]: 100
- minimum inhibitory concentration (MIC) [7]: 100
- minimum inhibitory concentration (MIC) [8]: > 100
- minimum inhibitory concentration (MIC) [9, 11]: > 100
